Test results published in the NIST ThermoML archive (doi:10.1021/je5001796).

Test: xn = mol fraction of the nth substance listed
Conditions: 101 kPa, Liquid, Vibrating tube method, x2 = 0.3333

NC(N)=O [urea] + C[N+](C)(C)CCO.[Cl-]
Conditions | mass density [kg/m3]
293.15 K | 1200.1
303.15 K | 1194.5
313.15 K | 1188.7
323.15 K | 1183.1
333.15 K | 1177.3
343.15 K | 1170.8
353.15 K | 1163.5
363.15 K | 1155.4
